Publication PMC10398685 (ACS Omega, 2023)
Entries after “also recorded” stand apart in the source; their conditions may differ.

Experiments:
[1] = test system: 6 human methyltransferases (PRMT6, SUV39H1, SUV39H2, SETDB1, SETD7, and MLL1); assay type: biochemical; details: tested at 1 μM by SPA assay, duplicate
[2] = Steady-state intracellular uptake in CCRF-CEM cells; assay type: in vitro ADME; details: human, CCRF-CEM cells, 60 min incubation, 50 μM at t = 0, read-out: Kp (intracellular accumulation ratio IC/EC)
Excerpt: (§1) While an enzymatic MTase assay represents a valuable fast screening platform providing the information that can be directly used for SAR analyses, it is not fully predictive for the compounds’ activity in whole cells. In order to verify the ability of the compounds to reach the intracellular compartment, we measured the steady-state accumulation of representative compounds in intact CCRF-CEM, VERO-E6, and Calu-3 cells (Tables 3 and S2). […] Compound 12q was almost completely cleared from the medium after 60 min incubation with the cells rendering it among the most permeable compounds of the series based on Kp values. It should be noted that the apparent intracellular concentration of the compounds may be biased by their potential metabolism. Therefore, we decided to subject the selected derivatives to in vitro stability studies. […]
(§2) 3.3. Intracellular Uptake
(§3) Steady-state cellular uptake was measured in CCRF-CEM cells (ATCC, CRL-119), VERO-E6 cells (ATCC, CRL-1586) and Calu-3 cells (HTB-55), respectively. Suspension cells (CCRF-CEM) were treated as follows: Prior to the experiment, cells were washed by centrifugation (250 x g, 5 min) in prewarmed (37 °C) serum-free RPMI medium and resuspended in the same vehicle to a concentration of 2 x 10^7 cells per mL. The cell suspension was distributed into the microtubes in 500 μL aliquots (10^7 cells), and the uptake process was initiated by the addition of 2.5 μL of the 10 mM DMSO solutions of the compounds (50 μM final conc.). Samples were incubated for 60 min at 37 °C in a CO 2 incubator using a rotary stirrer. The uptake was terminated by centrifugation at 900 x g for 5 min, at +4 °C. The medium was stored at −20 °C for later analysis of the extracellular concentration of the compounds. The cells were washed two times with 1 mL PBS (900 x g, 5 min, +4 °C), and also stored at −20 °C for subsequent analysis of the intracellular concentration of the compounds. At the day of the analysis, both media and the pelleted cells were quickly thawed. The cell pellets were extracted with 200 μL of ice-cold methanol by vigorous shaking, further diluted 1:1 with water and centrifuged at 20 000 x g for 10 min. As for the media samples, 10 μL aliquots were extracted with 990 μL of 50% methanol. The samples were then transferred to ECHO® -compatible 384-well plates and the amount of analytes were quantified by the ECHO -MS® System (Sciex) where acoustic droplet ejection module is coupled with Sciex 6500® triple quadrupole mass spectrometer operating with an electrospray ionization source. Spectrometer was run in the multiple reaction monitoring (MRM) mode. When necessary, the processed samples were further diluted in 50% methanol to fit in the calibration range. Calibration curves of the compounds in 50% methanol were measured alongside the samples within the same run. The ra tio between the total compound concentration in the cells and compound concentration in the medium (K p) at t=60 min was calculated according to: Kp = (Acell / Vcell) / Cmedium, where Acell is the amount of compound in the cell lysate, Vcell is the CCRF-CEM cell volume (3.38 μL/10^7 cells)16 and Cmedium is the compound concentration in the medium sample after correcting for sample dilution. Experiments were performed in duplicates. […]

[3] = test system: CCRF-CEM cells; assay: as above; assay type: in vitro ADME; details: 60 min incubation, 50 μM at t = 0
Excerpt: as §1, §2, §3

[4] = Plasma stability, human; assay type: in vitro ADME; details: 5uM, triplicates, 37 °C
Method: The microsomal half-lives (t1/2) were calculated using the equation t1/2=0.693/k, where k is the slope found in the linear fit of the natural logarithm of the fraction remaining of the parent compound vs. incubation time. […]
To determine plasma stability of the compounds, 5 μM of these were incubated with human pooled plasma from 50 donors (Biowest) for 120 min and 240 min at 37 °C. The reactions were terminated by adding four volumes of ice -cold methanol, the samples were then mixed vigorously and left at -20 °C for 1 h. After that, the samples were centrifuged, and the supernatant was analyzed by means of ECHO -MS® System (Sciex). Zero time points were prepared by adding ice-cold methanol to the compound prior the addition of the plasma. […]

[5] = Microsomal stability, human; assay type: in vitro ADME; details: triplicates; for Microsomal stability Rem. at 45 min / Microsomal stability T1/2: 0.5 mg/ml human microsomes, 5uM; for microsomal CLint at 5 µM / half-life at 5 µM: pooled liver microsomes, pH 7.4, 0.5 mg/ml human microsomes; for half-life at 5 µM: read-out: Microsomal stability T1/2
Excerpt: 50% methanol. The samples were then transferred to ECHO® -compatible 384-well plates and the amount of analytes were quantified by the ECHO -MS® System (Sciex) where acoustic droplet ejection module is coupled with Sciex 6500® triple quadrupole mass spectrometer operating with an electrospray ionization source. Spectrometer was run in the multiple reaction monitoring (MRM) mode. When necessary, the processed samples were further diluted in 50% methanol to fit in the calibration range. Calibration curves of the compounds in 50% methanol were measured alongside the samples within the same run. […]
3.4. Microsomal stability […]
The reactions were […]
terminated by the addition of four volumes of ice-cold methanol, mixed vigorously and left at -20 °C for 1 h. After that, the samples were centrifuged and the supernatants were analyzed by means of ECHO-MS® System (Sciex, Framingham, MA, USA). Zero time points were prepared by adding ice-cold methanol to the mixture of compound with cofactors prior to the addition of microsomes. The microsomal half-lives (t1/2) were calculated using the equation t1/2=0.693/k, where k is the slope found in the linear fit of the natural logarithm of the fraction remaining of the parent compound vs. incubation time. Intrinsic clearance (CLint) was calculated using the following formula: CLint = V * ln2 /t1/2, where V = incubation volume per milligram of microsomal protein (µL/mg) and t1/2 = microsomal half-life. […]
3.6. Caco-2 permeability assay
Transepithelial bi-directional transport of tested compounds (5 µM, pH 7.4/7.4) across the Caco-2 monolayers was studied using the BD BioCoat HTS Caco -2 assay system (BD Biosciences, Bedford, MA) as described in detail elsewhere.17 Aliquots were collected from the donor and acceptor compartment at the end of transport period (3 h), integrity of monolayers were verified using Lucifer Yellow dye and the compounds were quantified using LC-MS/MS (Sciex 6500® triple quadrupole). The apparent permeability coefficient (Papp) was calculated from the following equation: Papp = (dQ / dt) / C0 * A, where dQ/dt is the rate of absorption of the drug across the cells, C0 is the donor compartment concentration at time zero, and A is the area of the monolayer. Efflux ratio was expressed as (Papp B-A) / (Papp A-B). Recovery (%) was determined as (total compound mass in donor and receiver compartments at the end of the incubation / initial compound mass in the donor compartment) x 100.

[6] = test system: SARS-CoV-2; assay: microbe, parasite or virus in culture; assay type: cell-based; details: Severe acute respiratory syndrome coronavirus 2, 72 h; Calu-3 cells, MOI~0.03, 3 days incubation, CPE by XTT; read-out: EC50 (anti-SARS-CoV-2 activity)

SMILES	Selectivity against 6 human methyltransferases [1]	Kp at 1 h, 50 µM [2]	EC (extracellular concentration in the media at t = 60 min) ± sd [3]	Plasma stability Rem. at 120 min [4]	Plasma stability T1/2 [4]	Microsomal stability Rem. at 45 min [5]	Microsomal stability T1/2 [5]	EC50 [6]	microsomal CLint at 5 µM [5]	half-life at 5 µM [5]	IC (intracellular concentration in the cells at t = 60 min) ± sd [3]
COc1ccc(S(=O)(=O)N(C)C[C@H]2O[C@@H](n3cc(C#Cc4cnc5ccccc5c4)c4c(N)ncnc43)[C@H](O)[C@@H]2O)cc1C#N [Compound 12q]	selective	5320	0.6 ± 0.1 µM	97.2 ± 4.1%	Stable	105.0 ± 3.9%	Stable; also recorded: excellent stability	> 100 µM			
COc1ccc(S(=O)(=O)N(C)C[C@H]2O[C@@H](n3cc(C#Cc4cccnc4)c4c(N)ncnc43)[C@H](O)[C@@H]2O)cc1C#N [Compound 12s]	selective	604	15 ± 3 µM	86.9 ± 0.9%	Stable	55.9 ± 4.7%		> 100 µM	27.1 ± 2 µL/min/mg	53.7 ± 2.7 min	
CCN(C[C@H]1O[C@@H](n2cc(C#Cc3cnc4ccccc4c3)c3c(N)ncnc32)[C@H](O)[C@@H]1O)S(=O)(=O)c1ccc(OC)c(C#N)c1 [Compound 12e]			0.2 ± 0.0 µM	76.3 ± 13.7%	Stable	60.2 ± 3.5%		> 100 µM	19.6 ± 6.1 µL/min/mg	91.3 ± 12.2 min	
CCN(C[C@H]1O[C@@H](n2cc(C#Cc3ccc(N)nc3)c3c(N)ncnc32)[C@H](O)[C@@H]1O)S(=O)(=O)c1ccc(OC)c(C#N)c1 [Compound 12h]		480	14 ± 1 µM	102.3 ± 4.8%	Stable	47.2 ± 3.5%		> 100 µM	34.9 ± 4 µL/min/mg	38 ± 3.7 min	
CCN(C[C@H]1O[C@@H](n2cc(C#Cc3cccnc3)c3c(N)ncnc32)[C@H](O)[C@@H]1O)S(=O)(=O)c1ccc(OC)c(C#N)c1 [Compound 12l]		163	29 ± 0 µM	89.8 ± 2.0%	Stable	78.6 ± 1.1%		> 100 µM	11.2 ± 1.5 µL/min/mg	113 ± 3.5 min	
CCN(C[C@H]1O[C@@H](n2cc(C#Cc3nc4ccccc4[nH]3)c3c(N)ncnc32)[C@H](O)[C@@H]1O)S(=O)(=O)c1ccc(OC)c(C#N)c1 [Compound 12a]		188	34 ± 0 µM	84.3 ± 2.6%	Stable	18.5 ± 4.0%		> 100 µM	77.3 ± 10.3 µL/min/mg	17.3 ± 2.2 min	
COc1ccc(S(=O)(=O)N(C)C[C@H]2O[C@@H](n3cc(C#Cc4ccc(C(N)=O)cc4)c4c(N)ncnc43)[C@H](O)[C@@H]2O)cc1C#N [Compound 12r]	selective	897	12 ± 6 µM	89.7 ± 0.6%	Stable	83.3 ± 2.6%	Stable; also recorded: excellent stability	> 100 µM			10,708 ± 358 μM
CCN(C[C@H]1O[C@@H](n2cc(C#Cc3ccc(C(N)=O)cc3)c3c(N)ncnc32)[C@H](O)[C@@H]1O)S(=O)(=O)c1ccc(OC)c(C#N)c1 [Compound 12o]		694	13 ± 3 µM	95.6 ± 5.1%	Stable	30.5 ± 5.3%		> 100 µM	53.8 ± 5.8 µL/min/mg	26.2 ± 3.4 min	
